What was measured:
[1] = tested on: human primary osteoclasts; test: Human Primary Osteoclastogenesis (TRAP-positive multinucleated cells from CD14+ monocytes); assay type: cell-based; details: 1 μM; compound added on Day 4 of monocyte differentiation
Method: In vitro potency of test compounds was determined by incubating them with human primary monocytes and assessing effects on the formation of mature osteoclasts.
The activity of the compounds in reducing the formation of human primary osteoclasts (osteoclastogenesis) was tested using monocytes derived from human whole blood. Monocytes, which are positive for the cell surface marker CD14, are part of the innate immune system found in the circulation. Peripheral blood monocytes differentiate to form several cell types, including osteoclasts. Human primary osteoclasts were […] macrophage colony-stimulating factor (M-CSF) and RANKL+10% foetal calf serum for approximately 6 days, with the exact duration depending on the individual donor of the cells.
When monocytes are cultured under the conditions described above, they form large, multinucleated cells (osteoclasts), which stain positively for tartrate-resistant acid phosphatase (TRAP). TRAP staining was performed between Days 5-6 of culture depending on the individual donor. Osteoclasts are identified as cells which stain positive for TRAP and contain more than 3 nuclei. Compounds which reduce the number of TRAP-positive cells reduce the formation of osteoclasts. The bisphosphonate compound, alendronate, which is used in the treatment of osteoporosis, is used as a positive control for reducing osteoclastogenesis in this assay.
Effects on osteoclast formation were assessed by staining for TRAP and counting cells containing more than three nuclei in each well under a microscope. This allows the absolute determination of cell number in each treated well.
PBMCs (peripheral blood mononuclear cells) were collected from healthy donors and isolated by centrifugation on a layer of Ficoll Paque (GE Healthcare, UK). Monocytes were then sorted from the PBMCs using an autoMACS Pro Separator (MiltenyiBiotec), which sorts cells depending on the markers present on their cell surface. The resulting CD14+ monocytes were resuspended in αMEM supplemented with 10% FCS, 25 ng/mL M-CSF and 100 ng/ml RANKL and added to a 48-well plate, which was then incubated for up to 6 days at 37° C./5% CO2. […] The medium was replenished every 2 days.
At the end of the culture period, the medium was removed from the cells and the cells were fixed at room temperature and then washed with phosphate-buffered saline. TRAP staining solution was then added and the cells incubated at 37° C. until a red colour had developed, after which the reaction was stopped by rinsing with water. The stained cells were air-dried and then photographed using a conventional microscope and the TRAP-positive multinucleated osteoclasts counted by two independent observers.
The average results (n=6) for each concentration of test compound were averaged between the two observers and then expressed as a fold change versus the average control value. The data were then plotted graphically using software from Grafit (Erithacus Software).

[2] = Rodent Pharmacokinetics Studies; assay type: in vivo, rat; details: male Han Wistar rats; for i.v. AUC: 1 mg/kg intravenous, 5% DMSO/10% solutol in saline; for bioavailability: rat, plasma, 5 mg/kg, oral in 0.5% CMC/0.1% Tween-80, i.v. in 5% DMSO/10% solutol in saline, read-out: Bioavail, F (%)
Method: Absorption and metabolic stability were studied using an in vivo pharmacokinetics assay.
[…] […] For compound HMC-C-01-A the oral administration was formulated in 2% dimethylacetamide/20% hydroxypropyl-β-cyclodextrin in water. Animals were given free access to food throughout the study except for fasting overnight and until 2 hours post dose on the day of dosing.
Blood samples were taken from the retro-orbital plexus at the following time points and placed in microtubes containing 20% K2EDTA solution: […]
Blood samples were centrifuged to obtain plasma, which was transferred to a separate container and frozen at −20° C.
For analysis, samples were thawed at room temperature and prepared by protein precipitation with acetonitrile spiked with internal standard (500 ng/mL glipizide) in the ratio 1:4 with plasma. The samples were then vortexed for 5 minutes and centrifuged for 10 minutes at 20,600×g at 4° C. 100 μL of the supernatant was collected for analysis.
The pharmacokinetic parameters for the test compounds were calculated by Phoenix WinNonlin version 6.3 (Pharsight Corp, CA) using standard non-compartmental methods. Peak plasma concentrations (Cmax) and time of the peak plasma concentration (Tmax) were the observed values. The area under the plasma concentration-time curve (AUC) was determined by use of the linear trapezoidal rule up to the last measurable concentration (AUClast) and thereafter by extrapolation of the terminal elimination phase to infinity (AUCinf). The terminal elimination rate constant (kel) was determined by regression analysis of the linear terminal portion of the log plasma concentration-time curve. The elimination phase half-life (t1/2) was calculated as 0.693/kel.

[3] = tested on: J774 macrophages; test: Resazurin Macrophage J774 Viability Assay; assay type: cell-based; details: Mus musculus, J774, 72 h; footnote (1): 10 point range 30 μM to 1.5 nM, n = 3 per concentration, Grafit; 72 hour incubation
Method: Potency was assessed using a viability assay based on the survival of the J774 macrophage cell line. Macrophages are closely related to osteoclasts and have been used previously as a model system for osteoclast survival (see, e.g., Luckman et al., 1998, “Heterocycle-containing bisphosphonates cause apoptosis and inhibit bone resorption by preventing protein prenylation: evidence from structure-activity relationships in J774 macrophages,” J. Bone Miner. Res., Vol. 13, pp. 1668-1678). The model is indicative both of effects on bone protection in diseases such as osteoporosis, osteoarthritis and rheumatoid arthritis, and of effects on inflammation since, like osteoclasts, J774 macrophages are dependent for survival on continued NFκB activation.
In vitro potency of test compounds was determined by incubation with J774 macrophages and subsequent determination of cell viability using resazurin.
Resazurin is a redox dye commonly used as an indicator of viability in cultured cells (see, e.g., Anoopkumar-Dukie, 2005, “Resazurin assay of radiation response in cultured cells”, British Journal of Radiology, Vol. 78, pp. 945-947). It is non-toxic to cells and stable in culture medium, allowing continuous measurement of cell proliferation in vitro as either a kinetic or endpoint assay. The assay is based on the ability of viable, metabolically-active cells to reduce resazurin (which is blue and non-fluorescent) to resorufin and dihydroresorufin (which are red and fluorescent) using electrons from reducing species, such as nicotinamide […] and flavin adenine dinucleotide (FADH). This transformation, from oxidised form to reduced form, can be measured either colorimetrically or fluorometrically. Insults that impair cell viability and proliferation also affects the capacity of cells to reduce resazurin, and the rate of dye reduction is directly proportional to the number of viable cells present.
For fluorescence measurements, 530-560 nm excitation and 590 nm emission wavelengths are typically used. For colorimetric measurements, absorbance at 570 nm (reduced form) and 600 nm (oxidised form) is typically measured. A simple calculation is performed to determine the relative quantities of the two species: a high ratio of resorufin (the reduced form) to resazurin (the oxidised form) is an indicator that cells are proliferating and viable. A low ratio indicates cells that are quiescent or non-viable.
J774 cells were plated at 10^4 cells per well in 100 μL αMEM (α Modified Eagle Medium) in 96-well plates and allowed to adhere overnight. The following day, test compounds were prepared as 100 mM solutions in DMSO. These stock solutions were diluted in DMSO and then diluted 1000× in culture medium (αMEM) before being added directly to the wells so as to give the desired final compound concentration. After a 72 hour incubation at 37° C./5% CO2, resazurin (Alamar Blue, Biosource International) was added to each well (1:10 v/v, 10 μL). The plate was then incubated at 37° C. for 3 hours and fluorescence was measured at 590 nm, with a 25 nm bandwidth.
The average results for each test compound were expressed as a percent (%) of the average control value reflecting cell viability. The average values across the concentrations tested were then plotted and an IC50 was calculated by fitting the data to a 4-parameter IC50 equation using either Graph Pad Prism software for Windows (Graph Pad Software, San Diego Calif. USA) or Grafit version 5 (Erithacus Software). Each experiment was repeated twice and the data are presented as the mean IC50 from both experiments.

[4] = 5 mg/kg orally, 0.5% CMC/0.1% Tween-80

| SMILES | % reduction at 1 μM [1] [%] | i.v. AUC [2] [ng/mL/min] | p.o. AUC (ng/mL/min) [2, 4] | bioavailability [2] [%] | IC50 [3] [nM] | p.o. AUC [2, 4] [ng/mL/min] |
| --- | --- | --- | --- | --- | --- | --- |
| NCCCC(O)(P(=O)(O)O)P(=O)(O)O [Alendronate, alendronate] | 12 | – | – | – | – | – |
| Cc1cc(S(=O)(=O)NC2CCC(C)(O)CC2)ccc1-c1ccc(F)cc1F (single isomer, unassigned) [REF001, reference compound] | – | 963 | 4766 ^(4) ng/mL/min | 50 | 50 | – |
| O=S(=O)(N[C@H]1CC[C@H](O)CC1)c1ccc(-c2ncc(Cl)cc2Cl)cc1 [ABD836, reference compound] | – | 2142 | – | 55 | 1450 | 5927 |

Source: US10005733B2, “N-(4-hydroxy-4-methyl-cyclohexyl)-4-phenyl-benzenesulfonamide and N-(4-hydroxy-4-methyl-cyclohexyl)-4-(2-pyridyl)-benzenesulfonamide compounds and their therapeutic use” (PIMCO 2664 LIMITED, priority 2014, dated 2018)
